PubChem BioAssay (NCI)
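Interpolation was linear, between the two tested concentrations surrounding the appropriate level; five concentrations were tested over 48 hours in 96-well plates. Abbreviation: GI50, concentration required for 50% inhibition of growth. TGI: concentration producing complete growth inhibition.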

Key:
Test in all cases: NCI anticancer screen, dose series, 48 h
[1] = system: UACC-257 melanoma
[2] = system: HCC-2998 colon
[3] = system: SF-295 CNS
[4] = system: MALME-3M melanoma
[5] = system: SN12C renal
[6] = system: ACHN renal
[7] = system: KM12 colon
[8] = system: UO-31 renal
[9] = system: M14 melanoma
[10] = system: PC-3 prostate
[11] = system: HS 578T breast
[12] = system: SW-620 colon
[13] = system: A498 renal

Compound | TGI [1] [µM] | TGI [2] [µM] | TGI [3] [µM] | TGI [4] [µM] | TGI [5] [µM] | TGI [6] [µM] | TGI [7] [µM] | TGI [8] [µM] | TGI [9] [µM] | TGI [10] [µM] | TGI [11] [µM] | TGI [12] [µM] | TGI [13] [µM] | GI50 [4] [µM]
C=CC1CN(C(=O)OCC)N(C(=O)OCC)C1CCc1ccccc1 (centres undefined) | > 100 | > 100 | > 100 | > 100 | > 100 | > 100 | > 100 | > 100 | > 100 | > 100 | > 100 |  |  | 
COc1nc(N)c(NC(C)=O)c(=O)n1C | > 100 | > 100 | > 100 | > 100 | > 100 | > 100 | > 100 | > 100 | > 100 |  |  | > 100 | > 100 | 
O=C(N/N=C/c1cc(Br)cc(Br)c1[O-])c1ccccc1O.O=C(N/N=C/c1cc(Br)cc(Br)c1[O-])c1ccccc1O.[Zn+2] | 10.6 | 3.42 | 5.28 | 8.77 |  | 15 | 15.9 | 10.6 | 8.3 |  |  | 19.5 |  | 
C=CCOC(=O)C1=C(C)NC2=N[C@H](CCCCCCCCC)C[C@@H]3CCC1N23 (some centres undefined) | 37.1 | 48.4 | > 100 | 35.7 | 35.7 | 44.4 | > 100 | 32.5 | 37.6 | 42.1 | 54.4 | > 100 |  | 
Fc1ccc2c3c([nH]c2c1)CCN(Cc1ccccc1)C3 | 30.6 | 26 | 27.9 | 35 | 35.4 | 47.3 | 29 | 25.6 | 34.5 |  | 30.8 | 40 | 31.7 | 
O=C(CSCC(=O)N/N=C\c1cccc([N+](=O)[O-])c1)N/N=C\c1cccc([N+](=O)[O-])c1 | > 100 | > 100 | 30.5 | 69.1 | > 100 | 33.7 | > 100 | > 100 | > 100 |  | > 100 | > 100 | > 100 | 
COc1c(C(=O)NCCN(CCNC(=O)c2cccc(-c3cccc(C(=O)N(C)C)c3OC)c2OC)CCNC(=O)c2cccc(-c3cccc(C(=O)N(C)C)c3OC)c2OC)cccc1-c1cccc(C(=O)N(C)C)c1OC | 75.5 | 33.1 | > 100 | 39.6 | > 100 | > 100 | 31.6 | > 100 | > 100 | > 100 | 87.3 | > 100 |  | 
CC(C)C1NC(=O)CC(c2ccccc2)N(N=O)C1c1ccccc1 (centres undefined) | > 100 | > 100 | > 100 | > 100 | > 100 |  | > 100 | > 100 |  |  |  | > 100 | > 100 | 
COc1cc2c(c(OC)c1OC)-c1ccc(SC)c(=O)cc1[C@@H](O)CC2 | > 100 | > 100 |  |  | > 100 | > 100 |  | > 100 |  |  |  | > 100 |  | 0.028
CC(=O)O[C@H]1C(=O)[C@@]2(C)[C@H]([C@H](OC(=O)c3ccccc3)[C@]3(O)C[C@H](OC(=O)[C@H](O)[C@@H](NC(=O)c4ccco4)c4ccccc4)C(C)=C1C3(C)C)[C@]1(OC(C)=O)CO[C@@H]1C[C@@H]2O |  |  | > 12.5 |  |  | > 12.5 | > 12.5 | > 12.5 | > 12.5 | > 12.5 | 0.00279 | > 12.5 | > 12.5 | 
C=C(C(=O)OC)[C@@H]1C[C@@H](OC(C)=O)C2=C[C@H](C[C@@]3(C)O[C@@H]3C3=CC(C)=C(O3)[C@H]1OC(C)=O)OC2=O | 44.3 | 43 | 88.5 | 30.7 | 56.8 | 49.4 | 43.7 | 36.3 | 43.2 | > 100 |  | 28.4 | 33.8 | 
CCOC(=O)/C(=N/Nc1ccccc1)N1C(=S)C=C(C)NN(C)C1=S | > 100 | > 100 | 84.9 |  | > 100 | > 100 | > 100 | > 100 | > 100 |  | > 100 | > 100 |  | 
Cn1cc2ccccc2c1-c1nc(F)nc(Oc2ccc3c(c2)CC[C@@H]2C3CC[C@@]3(C)C2C[C@H](O)[C@@H]3O)n1 (some centres undefined) | 81.6 | 29.9 | 33.9 | 75.4 | 31.6 | 47.6 | 36.1 | 32.3 | 32.2 |  |  | 15.8 | 47 | 
CCCCCCCCCOCC(COP(=O)([O-])OCC[N+](C)(C)C)OC (centres undefined) | > 100 | > 100 | > 100 | > 100 | > 100 |  | > 100 | > 100 |  |  |  | > 100 | > 100 | 
O=C(c1ccc(Cl)cc1)c1ccc(OCCCOc2ccc(C(=O)c3ccc(Cl)cc3)cc2Cl)c(Cl)c1 | > 100 | > 100 | > 100 | > 100 | > 100 | > 100 | > 100 |  | > 100 |  |  | > 100 |  | 
CC1CCC2CC(=O)OC([C@@H]3C(=O)O[C@@H](C4=CCCC4)C4C(C)CCC43)C12 (some centres undefined) | > 100 | > 100 | > 100 | > 100 | > 100 | > 100 | > 100 | > 100 | > 100 |  |  | > 100 |  | 
CC(Nc1ccc(Cl)c(Cl)c1)c1ccncc1 (centres undefined) | > 100 |  | 64.2 | > 100 | > 100 | > 100 | 40.1 | 31.1 | 68.2 | 75.2 |  | 78.5 | 61 | 
O=[N+]([O-])c1ccc(-n2nc3ccc4c(no[n+]4[O-])c3n2)cc1 | > 100 | > 100 | > 100 | > 100 | > 100 | > 100 | > 100 | > 100 | > 100 | > 100 | > 100 | > 100 |  | 
CCOC(=O)CC(NC(=O)c1[nH]cnc1/N=N/N(C)C)C(=O)OCC (centres undefined) | > 100 | > 100 | > 100 | > 100 | > 100 | > 100 | > 100 | > 100 | > 100 |  |  | > 100 | > 100 | 
